Measurements taken from EP4692094A1 (Beijing Konruns Pharmaceutical Co., Ltd., priority 2023, dated 2024).

Tests used:
KAT6A = target: T1, KAT6A (Homo sapiens, UniProt Q92794); experiment: Enzymatic activity assay for KAT6A acetyltransferase (TR-FRET, acetylation of histone substrate H3); assay type: biochemical
T1 construct: purchased active motife (Active Motif) 81223
Protocol: The acetylation effect of KAT6A on histone substrate H3 was determined using the TR-FRET (time-resolved fluorescence resonance energy transfer) method.
• 1) The compounds prepared in the examples of the present disclosure were each dissolved in dimethylsulfoxide to give solutions at a concentration of 10 mmol/L, and then the solutions were diluted to 0.2 mmol/L, i.e., 1 µL of the compound was added to 49 µL of DMSO, and 3-fold dilution was performed to give 10 concentrations. • 2) 50 nL of the test compounds (example compounds) were transferred to 384 reaction plates using Echo, two replicates for each compound, and the plates were centrifuged at a rotation speed of 1000 rpm for 1 min, the final concentration of dimethylsulfoxide (DMSO) being 0.5%. • 3) 2.5 µL of the reaction mixtures obtained in step 2 was added to the 384 reaction plates in step 2), and the plates were centrifuged at 1000 rpm for 1 min and incubated at 25 °C for 10 min. • 4) 2.5 µL of Bio-H3&AcCOA (acetyl-CoA) reaction solution was added to the 384 reaction plates in step 3), and the plates were centrifuged at a rotation speed of 1000 rpm for 1 min and incubated at 25 °C for 90 min. • 5) 5 µL of Eu-Ab& Ulight-SA detection solution was added to the 384 reaction plates in step 4), and the plates were centrifuged at 1000 rpm for 1 min and incubated at 25 °C for 60 min. • 6) The HTRF […] signals were read using a BMG high-throughput drug-screening multi-mode microplate reader.
The acetylation level of the histone H3 was analyzed by the GraphPad Prism 8 software. The reading of the negative control (0.5% DMSO wells) was set as 0% inhibition rate, and the reading of the positive control (wells with the highest concentration of the control compound) was set as 100% inhibition rate. The inhibition rates were calculated, and then IC50 values (half maximal inhibitory concentration) of test compounds were obtained by using a software nonlinear fitting formula; [formula]
Datapositive control: mean of positive control well values; Datanegative control: mean of negative control well values. Table 3. Enzymatic inhibitory activity of example compounds

[1] = tested on: human breast cancer cell line ZR-75-1; experiment: Assay for cell growth inhibitory activity (3D hydrogel culture, CCK-8); assay type: cell-based; details: 96 h; for viability at 0.0001 µM: ZR-75-1, 0.1 nM, read-out: Cell survival rate at example drug concentration 0.1 nM; for viability at 0.001 µM: ZR-75-1, 1 nM, read-out: Cell survival rate at example drug concentration 1 nM; for viability at 0.01 µM: ZR-75-1, 10 nM, read-out: Cell survival rate at example drug concentration 10 nM; for viability at 0.1 µM: ZR-75-1, 100 nM, read-out: Cell survival rate at example drug concentration 100 nM; for viability at 1 µM: ZR-75-1, 1000 nM, read-out: Cell survival rate at example drug concentration 1000 nM
Protocol: The human breast cancer cell line ZR-75-1 (1 × 10^^6 cells per cell culture dish with 100-mm diameter) was cultured in a 1640 culture medium, and 1% double antibiotics (streptomycin and penicillin), 10% fetal bovine serum (FBS), and 1% glutamine (Glumax) were added simultaneously. The cell culture dish was placed at 37 °C with 5% CO2 for 2 days for culture until the cell confluence reached 80%-90% to give cells in the logarithmic growth phase.
• 1) The example compounds were each dissolved in dimethylsulfoxide to give solutions at a concentration of 10 mmol/L, and the solutions were diluted to 250 µmol/L in 10-fold gradient for 5 concentrations, i.e., 0.2 nmol/L, 2 nmol/L, 20 nmol/L, 200 nmol/L, and 2000 nmol/L. • 2) Blank control wells were prepared by adding 0.1% dimethylsulfoxide to the cultured cells, and were used as high-reading control wells; cell-free 3D hydrogel was used as background wells. • 3) The cultured cells were separately added to the compounds in the examples at 0.2 nmol/L, 2 nmol/L, 20 nmol/L, 200 nmol/L, and 2000 nmol/L as test wells, with the same volumes as the original culture solutions.
• 1) The cells were collected, resuspended in a PBS balanced salt solution, and counted; and the cells were mixed with the 3D hydrogel stock solution and prepared into hydrogel cell suspensions with proper density. • 2) The 3D hydrogel cell suspension (5 × 10^^4 cells) was added to each well in 96-well cell culture plates with low surface adsorption, and the plates were incubated at 37 °C with 5% CO2 for 20 min. • 3) The complete culture medium containing the compound prepared in 1.2 with an equal volume to that of the cell suspension in step 2 was added to the 96-well cell culture plate. • 4) The cells were cultured at 37 °C in a 5% CO2 incubator for 96 h.
• 1) The complete culture medium in the upper layer above the hydrogel was pipetted from each well of the 96-well cell culture plate with a vacuum pump or a manual pipette with careful processing to avoid breaking the hydrogel lower layer. • 2) The complete culture medium containing the CCK-8 substrate with an equal volume to that of the original hydrogel was added to each well. • 3) The plate was cultured at 37 °C with 5% CO2 for 1 h. • 4) The 96-well cell culture plate was placed in a microplate reader, and the values of A450 and A630 were separately detected.
Data analysis: The relative inhibitory level was analyzed by using Excel software, and the survival rates of cells under different compound culture conditions were obtained; [formula]
High-reading control well: cells + dimethylsulfoxide; background well: cell-free hydrogel. Table 7. Cell proliferation inhibitory activity of some of example compounds

[2] = In-vivo pharmacokinetic study in rats; design: species or system SD female rats; details: female, SD, rat, plasma, po, 5 mg/kg, intragastric administration; for AUC(0-t): read-out: AUC0-24h
Protocol: 1.1 Instrument: high-performance liquid chromatograph: SHIMADZU LC-30AD; mass spectrum: AB SCIEX mass spectrometer Triple Quad 5500; all measured data were calculated and processed using Microsoft Excel, and relevant pharmacokinetic parameters were calculated using WinNonlin software. The main obtained kinetic parameters are Tmax, T1/2, Cmax, AUC0-24 h, and AUCinf. […] Sample injection amount: 1 µL.
1.2 Animals: three SD female rats were used. The body weight range was 180-300 g. After purchase, the rats were bred in the experimental animal center for two days for later use. The rats were fasted 12 h before administration and 4 h after administration, and given ad libitum access to water during the assay. Blood samples were taken at predetermined time points after intragastric administration.
1.3 Vehicle: 0.5% HPMC (hydroxypropyl methylcellulose) + 0.4% Tween80 + 99.1% water. Preparation of intragastric administration solution: The compound was precisely weighed, the vehicle was added, and then the drug was completely dissolved by ultrasonication at room temperature for 5 min and prepared into a 0.5 mg/mL solution. After the intragastric administration, blood samples were taken at 0.083 h, 0.25 h, 0.5 h, 1.0 h, 2.0 h, 4.0 h, 7.0 h, and 24 h. The blood collection mode is as follows: 0.2 mL of the jugular vein blood was collected, EDTA-K2 was used as an anticoagulation agent, the collected blood sample was transferred into a microcentrifuge tube containing the anticoagulation agent, and the tube was centrifuged at 4 °C and 4000 g for 5 min to separate the plasma. All plasma samples collected were stored at -75±15 °C until analysis.
The compound was precisely weighed and prepared into a standard curve working solution and a quality control working solution at different concentrations. The blank plasma was added and prepared into a plasma standard curve and a quality control sample. LC/MS/MS analysis was performed after pretreatment using a protein precipitation method, and then the concentration of the compounds described above in the plasma was measured. All measured data were collected and processed by the relevant software, and pharmacokinetic parameters were calculated using Winnonlin software. Table 9. Pharmacokinetic parameters of some compounds in the examples in rats

T1 sequence (Q92794 whole entry): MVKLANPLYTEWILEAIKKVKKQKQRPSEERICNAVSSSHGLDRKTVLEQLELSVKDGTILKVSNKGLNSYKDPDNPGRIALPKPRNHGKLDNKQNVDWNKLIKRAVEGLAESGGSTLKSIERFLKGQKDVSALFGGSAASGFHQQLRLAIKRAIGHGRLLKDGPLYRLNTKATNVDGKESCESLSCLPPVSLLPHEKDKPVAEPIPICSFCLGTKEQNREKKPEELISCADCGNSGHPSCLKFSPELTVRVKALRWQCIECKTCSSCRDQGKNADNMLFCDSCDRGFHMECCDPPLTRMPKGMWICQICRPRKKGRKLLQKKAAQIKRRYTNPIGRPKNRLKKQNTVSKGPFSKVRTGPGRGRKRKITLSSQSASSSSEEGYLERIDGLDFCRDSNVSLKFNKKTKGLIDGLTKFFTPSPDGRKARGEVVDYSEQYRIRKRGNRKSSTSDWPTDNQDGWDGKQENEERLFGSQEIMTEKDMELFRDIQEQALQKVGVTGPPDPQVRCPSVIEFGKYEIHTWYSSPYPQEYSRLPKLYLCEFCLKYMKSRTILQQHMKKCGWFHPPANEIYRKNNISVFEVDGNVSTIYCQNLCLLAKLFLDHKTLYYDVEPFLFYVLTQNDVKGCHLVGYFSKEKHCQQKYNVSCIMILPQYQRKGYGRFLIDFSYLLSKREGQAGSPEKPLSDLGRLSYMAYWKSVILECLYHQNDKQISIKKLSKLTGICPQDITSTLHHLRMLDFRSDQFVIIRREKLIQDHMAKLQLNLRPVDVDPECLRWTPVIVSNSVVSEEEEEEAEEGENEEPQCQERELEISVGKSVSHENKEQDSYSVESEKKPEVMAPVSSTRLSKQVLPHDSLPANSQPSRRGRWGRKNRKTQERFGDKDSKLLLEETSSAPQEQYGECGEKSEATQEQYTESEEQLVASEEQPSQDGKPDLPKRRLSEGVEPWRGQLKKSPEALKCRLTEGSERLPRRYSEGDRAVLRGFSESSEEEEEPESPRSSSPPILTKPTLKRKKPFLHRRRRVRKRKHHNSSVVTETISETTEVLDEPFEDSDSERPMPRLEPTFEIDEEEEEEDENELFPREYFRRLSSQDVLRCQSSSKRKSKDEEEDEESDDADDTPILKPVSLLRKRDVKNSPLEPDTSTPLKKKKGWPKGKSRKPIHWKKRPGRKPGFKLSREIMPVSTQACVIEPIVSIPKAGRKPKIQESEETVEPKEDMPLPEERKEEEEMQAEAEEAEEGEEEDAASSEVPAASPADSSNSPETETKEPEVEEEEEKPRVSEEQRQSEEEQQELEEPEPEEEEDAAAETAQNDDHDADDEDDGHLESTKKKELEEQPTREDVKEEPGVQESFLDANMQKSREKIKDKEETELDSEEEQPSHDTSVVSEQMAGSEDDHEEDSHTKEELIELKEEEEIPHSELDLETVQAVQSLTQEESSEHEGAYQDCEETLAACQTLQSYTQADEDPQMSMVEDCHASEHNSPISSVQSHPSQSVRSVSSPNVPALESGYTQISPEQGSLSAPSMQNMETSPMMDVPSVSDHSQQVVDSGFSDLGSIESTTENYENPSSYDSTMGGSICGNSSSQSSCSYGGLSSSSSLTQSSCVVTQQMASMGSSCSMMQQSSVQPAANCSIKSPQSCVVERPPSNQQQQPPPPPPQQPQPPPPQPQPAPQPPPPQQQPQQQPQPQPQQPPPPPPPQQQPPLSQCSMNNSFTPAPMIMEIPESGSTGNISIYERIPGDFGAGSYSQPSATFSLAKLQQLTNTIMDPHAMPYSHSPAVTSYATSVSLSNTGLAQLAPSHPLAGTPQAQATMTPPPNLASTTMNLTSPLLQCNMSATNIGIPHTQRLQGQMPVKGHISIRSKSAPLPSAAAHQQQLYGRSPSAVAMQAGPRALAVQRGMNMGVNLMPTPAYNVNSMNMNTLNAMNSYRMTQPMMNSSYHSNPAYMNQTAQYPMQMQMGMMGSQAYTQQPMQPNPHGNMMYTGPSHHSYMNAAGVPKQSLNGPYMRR

Q: With `COc1nc(Cn2cccn2)cc2onc(NS(=O)(=O)c3cccc4c3OCC4)c12` [Example 1, N-(6-((1H-pyrazol-1-yl)methyl)-4-methoxyisoxazolo[4,5-c]pyridin-3-yl)-2,3-dihydrobenzofuran-7-sulfonamide] as the compound, how does the IC50 (KAT6A) read?
A: 7.33 nM

Q: What about the viability at 0.0001 µM [1] of the same compound?
A: 95%

Q: And the viability at 0.001 µM [1]?
A: 80%

Q: What about the viability at 0.01 µM [1] of the same compound?
A: 54%

Q: And the viability at 0.1 µM [1]?
A: 40%

Q: What about the viability at 1 µM [1] of the same compound?
A: 30%

Q: With `COc1ccc2c(c1S(=O)(=O)Nc1noc3cc(Cn4cccn4)nc(OC)c13)CCCC2` [Example 3] as the compound, how does the IC50 (KAT6A) read?
A: 1.76 nM

Q: And the viability at 0.0001 µM [1]?
A: 71%

Q: And the viability at 0.001 µM [1]?
A: 55%

Q: What about the viability at 0.01 µM [1] of the same compound?
A: 43%

Q: What about the viability at 0.1 µM [1] of the same compound?
A: 40%

Q: What about the viability at 1 µM [1] of the same compound?
A: 29%

Q: Which IC50 (KAT6A) does the source give for `COc1nc(Cn2cccn2)cc2onc(NS(=O)(=O)c3cccc4c3ccn4C)c12` [Example 6, N-(6-((1H-Pyrazol-1-yl)methyl)-4-methoxyisoxazolo[4,5-c]pyridin-3-yl)-1-methyl-1H-indole-4-sulfonamide] here?
A: 3.11 nM

Q: What about the viability at 0.0001 µM [1] of the same compound?
A: 74%

Q: And the viability at 0.001 µM [1]?
A: 66%

Q: And the viability at 0.01 µM [1]?
A: 45%

Q: And the viability at 0.1 µM [1]?
A: 38%

Q: And the viability at 1 µM [1]?
A: 25%

Q: And the half-life [2]?
A: 24.6 h

Q: And the AUC(0-inf) [2]?
A: 1300 µg·h/mL

Q: What about the Cmax [2] of the same compound?
A: 31600 ng/mL

Q: What about the Tmax [2] of the same compound?
A: 0.33 h

Q: What about the AUC(0-t) [2] of the same compound?
A: 502 µg·h/mL

Q: Which results are given for `COc1ccc2cccnc2c1S(=O)(=O)Nc1noc2cc(Cn3cccn3)nc(OC)c12` [Example 11, N-(6-((1H-Pyrazol-1-yl)methyl)-4-methoxyisoxazolo[4,5-c]pyridin-3-yl)-7-methoxyquinoline-8-sulfonamide]?
A: IC50 (KAT6A): 0.77 nM; AUC(0-inf) [2]: 32 µg·h/mL; Cmax [2]: 3310 ng/mL; Tmax [2]: 0.83 h; AUC(0-t) [2]: 32 µg·h/mL

Q: With `COc1cc2c(c(OC)c1S(=O)(=O)Nc1noc3cc(Cn4cccn4)nc(OC)c13)CCC2` [Example 62, N-(6-((1H-Pyrazol-1-yl)methyl)-4-methoxyisoxazolo[4,5-c]pyridin-3-yl)-4,6-dimethoxy-2,3-dihydro-1H-indene-5-sulfonamide] as the compound, how does the IC50 (KAT6A) read?
A: 0.84 nM

Q: And the half-life [2]?
A: ≤ 10 h

Q: What about the AUC(0-inf) [2] of the same compound?
A: 450 µg·h/mL

Q: And the Cmax [2]?
A: 25600 ng/mL

Q: What about the Tmax [2] of the same compound?
A: 1.17 h

Q: And the AUC(0-t) [2]?
A: 356 µg·h/mL

Q: Which IC50 (KAT6A) does the source give for `COc1ccc2c(c1S(=O)(=O)Nc1noc3cc(Cn4cccn4)nc(OC)c13)OC(C)(C)C2` [Example 100, N-(6-((1H-pyrazol-1-yl)methyl)-4-methoxyisoxazolo[4,5-c]pyridin-3-yl)-6-methoxy-2,2-dimethyl-3H-benzofuran-7-sulfonamide] here?
A: 1.06 nM

Q: For `COc1cc2c(cc1S(=O)(=O)Nc1noc3cc(Cn4cccn4)nc(OC)c13)OCC2(C)C` [Example 101, N-(6-((1H-pyrazol-1-yl)methyl)-4-methoxyisoxazolo[4,5-c]pyridin-3-yl)-5-methoxy-3,3-dimethyl-2H-benzofuran-6-sulfonamide], which IC50 (KAT6A) is on record?
A: 2.04 nM

Q: Which IC50 (KAT6A) does the source give for `[2H]c1cc2ccc(OC)c(S(=O)(=O)Nc3noc4cc(Cn5cccn5)nc(OC)c34)c2o1` [Example 102, N-(6-((1H-pyrazol-1-yl)methyl)-4-methoxyisoxazolo[4,5-c]pyridin-3-yl)-6-methoxybenzofuran-7-sulfonamide-2-d] here?
A: 0.83 nM

Q: With `[2H]C1Oc2cc(S(=O)(=O)Nc3noc4cc(Cn5cccn5)nc(OC)c34)c(OC)cc2C1[2H]` (stereo not shown) [Example 103, N-(6-((1H-pyrazol-1-yl)methyl)-4-methoxyisoxazolo[4,5-c]pyridin-3-yl)-5-methoxy-2,3-dihydrobenzofuran-6-sulfonamide-2,3-d2] as the compound, how does the IC50 (KAT6A) read?
A: 1.86 nM

Q: With `[2H]C([2H])(c1cc2onc(NS(=O)(=O)c3cc4c(cc3OC)CCO4)c2c(OC)n1)n1cccn1` [Example 104, N-(6-((1H-pyrazol-1-yl)methyl-d2)-4-methoxyisoxazolo[4,5-c]pyridin-3-yl)-5-methoxy-2,3-dihydrobenzofuran-6-sulfonamide] as the compound, how does the IC50 (KAT6A) read?
A: 1.77 nM

Q: For `COc1cc2c(cc1S(=O)(=O)Nc1noc3cc(Cn4cccn4)nc(OC)c13)OC(C)(C)C2` [Example 105, N-(6-((1H-pyrazol-1-yl)methyl)-4-methoxyisoxazolo[4,5-c]pyridin-3-yl)-5-methoxy-2,2-dimethyl-2,3-dihydrobenzofuran-6-sulfonamide], which IC50 (KAT6A) is on record?
A: 2.18 nM

Q: For `COc1nc(Cn2cccn2)cc2onc(NS(=O)(=O)c3cc(C4CC4)cc4c3OCCC4)c12` [Example 106, N-(6-((1H-pyrazol-1-yl)methyl)-4-methoxyisoxazolo[4,5-c]pyridin-3-yl)-6-cyclopropyl-3,4-dihydro-1H-benzopyran-8-sulfonamide], which IC50 (KAT6A) is on record?
A: 0.94 nM

Q: Which IC50 (KAT6A) does the source give for `COc1nc(Cn2cccn2)cc2onc(NS(=O)(=O)c3cc(C#N)cc4c3OCCC4)c12` [Example 107, N-(6-((1H-pyrazol-1-yl)methyl)-4-methoxyisoxazolo[4,5-c]pyridin-3-yl)-6-cyano-3,4-dihydro-1H-benzopyran-8-sulfonamide] here?
A: 5.86 nM

Q: Which IC50 (KAT6A) does the source give for `COc1cc2occc2cc1S(=O)(=O)Nc1noc2cc(Cn3cccn3)nc(OC)c12` [Example 108, N-(6-((1H-pyrazol-1-yl)methyl)-4-methoxyisoxazolo[4,5-c]pyridin-3-yl)-6-methoxybenzofuran-5-sulfonamide] here?
A: 1.26 nM
